{"source": "patent US11590232B2", "about": "“Bioconjugates of neuropeptides derivatives” (CENTRE NATIONAL DE LA RECHERCHE SCIENTIFIQUE, priority 2018, dated 2023)", "key": {"[1]": {"test": "In vivo imaging biodistribution (IVIS Lumina) in mice with λ-carrageenan-induced paw inflammation", "set-up": "species or system Swiss mice", "conditions": "i.v. injection, λ-carrageenan administered mice", "procedure": "In parallel, control non-inflamed shaved mice (injected with 20 μL saline into the right hind paw, instead of λ-carrageenan), received also injection of fluorescent LENK-SQ NPs. The biodistribution of the NPs was recorded at 0.5, 2, 4, 6 and 24 h after excitation at 640 nm and emission in the 695-775 nm filter respectively, using IVIS Lumina LT series III system (Caliper, Life science). During imaging, the mice were kept on the imaging stage under anesthesia with 2% isoflurane gas in oxygen flow (1 L/min) and were imaged in ventral position. Images and measures of fluorescence signals were acquired and analyzed with Living Imaging®. To measure photon radiance, regions of interest (ROI, threshold of 35%) were selected on the paw of the mice and average radiant efficiency values were used for quantification. Threshold of ROI for the inflamed paw was then pasted on the non-inflamed paw to compare the radiance with the same region."}, "[2]": {"test": "Dynamic light scattering (DLS) measurement of LENK-SQ NPs: size, zeta potential", "format": "physicochemical", "conditions": "in 0.1 mM KCl", "procedure": "The mean particle size, polydispersity index (PDI) and zeta potential were primarily evaluated by DLS (Nano ZS, Malvern; 173° scattering angle at 25° C.).\nThe measurements were performed in triplicate following appropriate dilution of the nanoparticles in water (DLS) or in 0.1 mM KCl (zeta potential)."}, "[3]": {"conditions": "37° C.", "procedure": "In the case of LENK-SQ-Diox NPs, diluted serum (30% in 5% dextrose solution) was used for the release study. […] To quantify the residual LENK-SQ bioconjugate and the released LENK, the resulting supernatants (150 μL) were evaporated to dryness at 40° C. under nitrogen flow, and then solubilized in 150 μL of Milli-Q water."}, "[4]": {"test_system": "central or peripheral opioid receptors", "test": "Opioid receptor blockade with naloxone or naloxone methiodide before agonist, Hargreaves test", "format": "in vivo, Sprague-Dawley rats", "conditions": "for reduction of AUC value by NaI pre-treatment compared with agonist alone: NaI (naloxone, brain-permeant) 0.5 mg/kg s.c. 15 min before agonist; for reduction of AUC value by NaI-M pre-treatment compared with agonist alone: NaI-M (naloxone methiodide, brain-impermeant) 0.5 mg/kg s.c. 15 min before agonist"}, "[5]": {"test_system": "thermal hyperalgesia in λ-carrageenan-treated rats", "test": "Hargreaves test (thermal nociceptive test) in λ-carrageenan-induced inflammatory pain", "format": "in vivo, Sprague-Dawley rats"}, "[6]": {"conditions": "diluted mouse serum (30% in 5% dextrose solution)"}}}
{"molecule": "CCCCCCCCCCCCCCCCCCN1/C(=C/C=C/C=C/C2=[N+](CCCCCCCCCCCCCCCCCC)c3ccccc3C2(C)C)C(C)(C)c2ccccc21.[O-][Cl+3]([O-])([O-])[O-]", "note": "[DiD solution]", "values": [{"measurement": "accumulation of fluorescence in the inflamed paw", "setting": "[1]", "result": "no significant accumulation of fluorescence"}]}
{"molecule": "CC(C)=CCC/C(C)=C/CC/C(C)=C/CC/C=C(\\C)CC/C=C(\\C)CCC(=O)NC(Cc1ccc(O)cc1)C(=O)NCC(=O)NCC(=O)NC(Cc1ccccc1)C(=O)NC(CC(C)C)C(=O)O", "note": "(centres unmarked) [LENK-SQ-Am, Leu-enkephalin-squalene Bioconjugate with Amide Spacer]", "values": [{"measurement": "zeta potential (sign of charge) of NPs", "setting": "[2]", "result": "negative"}, {"measurement": "time stable in serum without significant decrease of bioconjugate", "setting": "[3]; mouse serum", "result": "≥ 48", "unit": "h"}, {"measurement": "reduction of AUC value by NaI pre-treatment compared with agonist alone", "setting": "[4]", "result": 73, "unit": "%"}, {"measurement": "reduction of AUC value by NaI-M pre-treatment compared with agonist alone", "setting": "[4]", "result": 96, "unit": "%"}]}
{"molecule": "CC(C)=CCC/C(C)=C/CC/C(C)=C/CC/C=C(\\C)CC/C=C(\\C)CCCOC(=O)COCC(=O)NC(Cc1ccc(O)cc1)C(=O)NCC(=O)NCC(=O)NC(Cc1ccccc1)C(=O)NC(CC(C)C)C(=O)O", "note": "(centres unmarked) [LENK-SQ-Dig, Leu-enkephalin-squalene Bioconjugate with diglycolic Spacer]", "values": [{"measurement": "zeta potential (sign of charge) of NPs", "setting": "[2]", "result": "negative"}, {"measurement": "release of free LENK peptide", "setting": "[3]; mouse serum", "result": "no presence of free peptide was detected"}, {"measurement": "time of complete disappearance of the bioconjugate", "setting": "[3]; mouse serum", "result": 2, "unit": "h"}, {"measurement": "time of decline of PWL down to baseline", "setting": "[5]; 20 mg/kg i.v., rats", "result": 220, "unit": "min"}]}
{"molecule": "CC(C)=CCC/C(C)=C/CC/C(C)=C/CC/C=C(\\C)CC/C=C(\\C)CCC(=O)OCOC(=O)C(CC(C)C)NC(=O)C(Cc1ccccc1)NC(=O)CNC(=O)CNC(=O)C(N)Cc1ccc(O)cc1", "note": "(centres unmarked) [LENK-SQ-Diox, Leu-Enkephalin-Squalene Bioconjugate with Dioxycarbonyl Spacer]", "values": [{"measurement": "zeta potential (sign of charge) of NPs", "setting": "[2]", "result": "net positive charge"}, {"measurement": "release of the free LENK peptide", "setting": "[3]; [6]", "result": "progressively released the free LENK peptide"}, {"measurement": "time till which the concentration of the bioconjugate decreased gradually", "setting": "[3]; [6]", "result": 7, "unit": "h"}, {"measurement": "reduction of AUC value by NaI pre-treatment compared with agonist alone", "setting": "[4]", "result": 66, "unit": "%"}, {"measurement": "reduction of AUC value by NaI-M pre-treatment compared with agonist alone", "setting": "[4]", "result": 81, "unit": "%"}]}
{"molecule": "CN1CC[C@]23c4c5ccc(O)c4O[C@H]2[C@@H](O)C=C[C@H]3[C@H]1C5", "note": "[morphine]", "values": [{"measurement": "paw withdrawal latency (PWL)", "setting": "[5]; 10 min post-injection, morphine 1 mg/kg, 3 h after λ-carrageenan, rats", "result": "12.87 ± 1.38", "unit": "s"}, {"measurement": "time post-administration at which no longer significant anti-hyperalgesic effect was observed", "setting": "[5]; morphine 1 mg/kg, rats", "result": 100, "unit": "min"}, {"measurement": "maximal PWL values compared with basal PWL of control naïve rats", "setting": "[5]; λ-carrageenan-treated rats", "result": "twice as high as those found in control naïve rats"}]}
